How the values were obtained:
L444P [1] = test: Increase in non-lysosomal activity of glucocerebrosidase […] mutant in human L444P cells at 150 uM relative to Conduritol B epoxide; format: cell-based
[2] = target: T1, Lysosomal acid glucosylceramidase (Homo sapiens, UniProt P04062); test: Inhibition of glucocerebrosidase
T1 sequence (P04062 whole entry): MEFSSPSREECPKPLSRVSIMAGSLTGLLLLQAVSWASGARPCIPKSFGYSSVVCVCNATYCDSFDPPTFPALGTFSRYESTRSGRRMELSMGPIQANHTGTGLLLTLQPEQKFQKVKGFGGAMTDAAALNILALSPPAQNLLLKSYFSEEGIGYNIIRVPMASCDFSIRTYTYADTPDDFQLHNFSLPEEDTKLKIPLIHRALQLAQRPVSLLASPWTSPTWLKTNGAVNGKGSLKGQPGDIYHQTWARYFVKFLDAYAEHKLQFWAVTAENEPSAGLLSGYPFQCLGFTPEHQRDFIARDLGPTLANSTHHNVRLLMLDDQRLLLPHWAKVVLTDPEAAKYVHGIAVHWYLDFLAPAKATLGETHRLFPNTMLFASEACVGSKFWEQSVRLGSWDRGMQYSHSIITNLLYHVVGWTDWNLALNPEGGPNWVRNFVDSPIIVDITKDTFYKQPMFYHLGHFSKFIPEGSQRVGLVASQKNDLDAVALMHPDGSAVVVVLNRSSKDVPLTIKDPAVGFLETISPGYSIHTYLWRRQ

[3] = target: T2, Lysosomal acid glucosylceramidase (Homo sapiens) (UniProt P04062); test: Increase in non-lysosomal activity of glucocerebrosidase N370S mutant in human L444P cells at 50 uM relative to Conduritol B epoxide; format: cell-based
T2 sequence (whole entry): T1 sequence (P04062 whole entry)

[4] = target: T2, Lysosomal acid glucosylceramidase (Homo sapiens); test: Increase in non-lysosomal activity of glucocerebrosidase N370S mutant in human L444P cells at 20 uM relative to Conduritol B epoxide; format: cell-based
L444P [5] = test: Increase in non-lysosomal activity of glucocerebrosidase […] mutant in human L444P cells at 50 uM relative to Conduritol B epoxide; format: cell-based
[6] = target: T2, Lysosomal acid glucosylceramidase (Homo sapiens); test: Increase in non-lysosomal activity of glucocerebrosidase N370S mutant in human L444P cells at 75 uM relative to Conduritol B epoxide; format: cell-based
L444P [7] = test: Increase in non-lysosomal activity of glucocerebrosidase […] mutant in human L444P cells at 20 uM relative to Conduritol B epoxide; format: cell-based
[8] = target: T2, Lysosomal acid glucosylceramidase (Homo sapiens); test: Increase in non-lysosomal activity of glucocerebrosidase N370S mutant in human L444P cells at 30 uM relative to Conduritol B epoxide; format: cell-based

Row | IC50 [2] [µM] | Activity [3] | Activity [4] | Activity [6] | Activity [8] | SMILES | Activity (L444P [1]) | Activity (L444P [5]) | Activity (L444P [7])
1 | 11 | 1.9 | – | – | – | O=C(CCCCN1C[C@H](CO)[C@@H](O)[C@H](O)C1)NC12CC3CC(CC(C3)C1)C2 | 7.2 | – | –
2 | 94 | – | – | 2.3 | – | O=C(CCCCCN1C[C@H](CO)[C@@H](O)[C@H](O)C1)NC12CC3CC(CC(C3)C1)C2 | 5.1 | – | –
3 | 18 | – | – | 2.5 | – | O=C(CCCN1C[C@H](CO)[C@@H](O)[C@H](O)C1)NC12CC3CC(CC(C3)C1)C2 | 7 | – | –

The remaining lines, values behind:

Row | SMILES | IC50 [2] [µM] | Activity [3] | Activity [4] | Activity [6] | Activity [8] | Activity (L444P [1]) | Activity (L444P [5]) | Activity (L444P [7])
4 | O=C(CCCCN1[C@H](CO)[C@@H](O)[C@H](O)[C@@H]1CO)NC12CC3CC(CC(C3)C1)C2 | 393 | – | 1.4 | – | – | – | 2.2 | –
5 | O=C(CCCN1[C@H](CO)[C@@H](O)[C@H](O)[C@@H]1CO)NC12CC3CC(CC(C3)C1)C2 | 507 | – | – | – | 2.2 | – | – | 1.6
